Source: the supplement of paper PMC8612539
Values after ≈ are worked out from the molar mass of the structure shown.

Assays:
Enterococcus spp. = assay: minimum inhibitory concentration (MIC)
Procedure: (§1)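 Broth microdilution MIC (Sensititre BOPO7F bovine plate, CLSI methods) of 19 antimicrobials against field isolates of P. multocida, M. haemolytica, H. somni (deep nasopharyngeal swabs) and E. coli, Enterococcus spp. (rectal swabs) from weaned dairy heifers. Incubation 16-24 h at 35 C. MIC is the lowest concentration preventing visible growth. Values with <= or > lie at the tested range limits. Trimethoprim-sulfamethoxazole is given as the trimethoprim component of a 1:19 mixture.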

Mannheimia haemolytica = assay: minimum inhibitory concentration (MIC)
Procedure: as §1

CS(=O)(=O)c1ccc([C@@H](O)[C@@H](CF)NC(=O)C(Cl)Cl)cc1 [Florfenicol]
minimum inhibitory concentration [µg/mL]
Settings | Enterococcus spp. | Mannheimia haemolytica
isolate (source animal id): 2 | 2 (≈ 5.58 µM) | –
isolate (source animal id): 8 | – | 1 (≈ 2.79 µM)
isolate (source animal id): 13 | – | 1 (≈ 2.79 µM)
isolate (source animal id): 18 | – | 2 (≈ 5.58 µM)
isolate (source animal id): 21 | – | 2 (≈ 5.58 µM)
isolate (source animal id): 25 | – | 2 (≈ 5.58 µM)
isolate (source animal id): 27 | – | 1 (≈ 2.79 µM)
isolate (source animal id): 28 | – | 1 (≈ 2.79 µM)
isolate (source animal id): 30 | – | 1 (≈ 2.79 µM)
isolate (source animal id): 31 | – | 1 (≈ 2.79 µM)
isolate (source animal id): 32 | – | 1 (≈ 2.79 µM)
isolate (source animal id): 34 | – | 1 (≈ 2.79 µM)
isolate (source animal id): 35 | > 8 | –
isolate (source animal id): 36 | – | 1 (≈ 2.79 µM)
isolate (source animal id): 37 | – | 1 (≈ 2.79 µM)
isolate (source animal id): 40 | – | 1 (≈ 2.79 µM)
isolate (source animal id): 41 | – | 1 (≈ 2.79 µM)
isolate (source animal id): 42 | 2 (≈ 5.58 µM) | –
isolate (source animal id): 43 | – | 2 (≈ 5.58 µM)
isolate (source animal id): 44 | 2 (≈ 5.58 µM) | –
isolate (source animal id): 46 | – | 1 (≈ 2.79 µM)
isolate (source animal id): 49 | – | 1 (≈ 2.79 µM)
isolate (source animal id): 50 | – | 1 (≈ 2.79 µM)
isolate (source animal id): 51 | – | 1 (≈ 2.79 µM)
isolate (source animal id): 52 | – | 1 (≈ 2.79 µM)
isolate (source animal id): 53 | – | 2 (≈ 5.58 µM)
isolate (source animal id): 55 | – | 1 (≈ 2.79 µM)
isolate (source animal id): 56 | – | 1 (≈ 2.79 µM)
isolate (source animal id): 57 | – | > 8
isolate (source animal id): 79 | 4 (≈ 11.2 µM) | –
isolate (source animal id): 88 | 2 (≈ 5.58 µM) | –
isolate (source animal id): 91 | 2 (≈ 5.58 µM) | –
isolate (source animal id): 92 | 2 (≈ 5.58 µM) | –
isolate (source animal id): 100 | – | 2 (≈ 5.58 µM)
isolate (source animal id): 103 | – | 1 (≈ 2.79 µM)
isolate (source animal id): 107 | – | 2 (≈ 5.58 µM)
isolate (source animal id): 108 | – | 2 (≈ 5.58 µM)
isolate (source animal id): 111 | 2 (≈ 5.58 µM) | –
isolate (source animal id): 112 | – | > 8
isolate (source animal id): 113 | – | > 8
isolate (source animal id): 121 | – | 2 (≈ 5.58 µM)
isolate (source animal id): 122 | > 8 | 2 (≈ 5.58 µM)
isolate (source animal id): 123 | 2 (≈ 5.58 µM) | > 8
isolate (source animal id): 126 | – | > 8
isolate (source animal id): 133 | 2 (≈ 5.58 µM) | > 8
isolate (source animal id): 135 | – | > 8
isolate (source animal id): 138 | – | > 8
isolate (source animal id): 141 | – | > 8
isolate (source animal id): 142 | – | 2 (≈ 5.58 µM)
isolate (source animal id): 145 | – | > 8
isolate (source animal id): 149 | – | 0.5 (≈ 1.4 µM)
isolate (source animal id): 151 | – | 0.5 (≈ 1.4 µM)
isolate (source animal id): 152 | – | 2 (≈ 5.58 µM)
isolate (source animal id): 154 | – | 0.5 (≈ 1.4 µM)
isolate (source animal id): 158 | 2 (≈ 5.58 µM) | –
isolate (source animal id): 159 | – | > 8
isolate (source animal id): 162 | – | > 8
isolate (source animal id): 168 | 2 (≈ 5.58 µM) | –
isolate (source animal id): 169 | 2 (≈ 5.58 µM) | –
isolate (source animal id): 170 | – | > 8
isolate (source animal id): 171 | 4 (≈ 11.2 µM) | 1 (≈ 2.79 µM)
isolate (source animal id): 172 | – | > 8
isolate (source animal id): 173 | – | 1 (≈ 2.79 µM)
isolate (source animal id): 175 | 4 (≈ 11.2 µM) | –
isolate (source animal id): 177 | 4 (≈ 11.2 µM) | –
isolate (source animal id): 179 | – | > 8
isolate (source animal id): 180 | – | > 8
isolate (source animal id): 181 | 2 (≈ 5.58 µM) | –
isolate (source animal id): 182 | 2 (≈ 5.58 µM) | –
isolate (source animal id): 183 | 2 (≈ 5.58 µM) | > 8
isolate (source animal id): 186 | – | > 8
isolate (source animal id): 187 | 2 (≈ 5.58 µM) | > 8
isolate (source animal id): 188 | – | > 8
isolate (source animal id): 190 | 2 (≈ 5.58 µM) | 1 (≈ 2.79 µM)
isolate (source animal id): 191 | – | > 8
isolate (source animal id): 192 | – | 1 (≈ 2.79 µM)
isolate (source animal id): 194 | 2 (≈ 5.58 µM) | –
isolate (source animal id): 195 | 2 (≈ 5.58 µM) | –
isolate (source animal id): 197 | 2 (≈ 5.58 µM) | –
isolate (source animal id): 201 | – | > 8
isolate (source animal id): 202 | – | 1 (≈ 2.79 µM)
isolate (source animal id): 209 | – | 1 (≈ 2.79 µM)
isolate (source animal id): 211 | 2 (≈ 5.58 µM) | > 8
isolate (source animal id): 214 | 2 (≈ 5.58 µM) | –
isolate (source animal id): 220 | – | > 8
isolate (source animal id): 221 | – | > 8
isolate (source animal id): 222 | 2 (≈ 5.58 µM) | –
isolate (source animal id): 223 | 2 (≈ 5.58 µM) | > 8
isolate (source animal id): 228 | 2 (≈ 5.58 µM) | –
isolate (source animal id): 230 | 2 (≈ 5.58 µM) | –
isolate (source animal id): 233 | – | 2 (≈ 5.58 µM)
isolate (source animal id): 235 | 2 (≈ 5.58 µM) | –
isolate (source animal id): 236 | 2 (≈ 5.58 µM) | –
isolate (source animal id): 237 | – | 1 (≈ 2.79 µM)
isolate (source animal id): 239 | 2 (≈ 5.58 µM) | –
isolate (source animal id): 241 | 2 (≈ 5.58 µM) | 2 (≈ 5.58 µM)
isolate (source animal id): 244 | 2 (≈ 5.58 µM) | –
isolate (source animal id): 246 | 2 (≈ 5.58 µM) | –
isolate (source animal id): 247 | 4 (≈ 11.2 µM) | –
isolate (source animal id): 250 | 2 (≈ 5.58 µM) | –
isolate (source animal id): 252 | 4 (≈ 11.2 µM) | 2 (≈ 5.58 µM)
isolate (source animal id): 253 | – | 2 (≈ 5.58 µM)
isolate (source animal id): 259 | – | > 8
isolate (source animal id): 260 | – | 2 (≈ 5.58 µM)
isolate (source animal id): 262 | – | 2 (≈ 5.58 µM)
isolate (source animal id): 268 | 2 (≈ 5.58 µM) | –
isolate (source animal id): 282 | 1 (≈ 2.79 µM) | > 8
isolate (source animal id): 285 | 4 (≈ 11.2 µM) | –
isolate (source animal id): 287 | – | 2 (≈ 5.58 µM)
isolate (source animal id): 288 | – | 0.5 (≈ 1.4 µM)
isolate (source animal id): 289 | 2 (≈ 5.58 µM) | –
isolate (source animal id): 290 | 2 (≈ 5.58 µM) | –
isolate (source animal id): 291 | – | 0.5 (≈ 1.4 µM)
isolate (source animal id): 293 | – | 2 (≈ 5.58 µM)
isolate (source animal id): 296 | 2 (≈ 5.58 µM) | –
isolate (source animal id): 298 | 2 (≈ 5.58 µM) | 8 (≈ 22.3 µM)
isolate (source animal id): 299 | – | > 8
isolate (source animal id): 300 | – | 1 (≈ 2.79 µM)
isolate (source animal id): 301 | 2 (≈ 5.58 µM) | –
isolate (source animal id): 302 | – | > 8
isolate (source animal id): 304 | – | 8 (≈ 22.3 µM)
isolate (source animal id): 306 | – | 0.5 (≈ 1.4 µM)
isolate (source animal id): 308 | – | 0.5 (≈ 1.4 µM)
isolate (source animal id): 309 | – | 0.5 (≈ 1.4 µM)
isolate (source animal id): 310 | 4 (≈ 11.2 µM) | –
isolate (source animal id): 313 | – | 2 (≈ 5.58 µM)
isolate (source animal id): 318 | – | 1 (≈ 2.79 µM)
isolate (source animal id): 320 | 1 (≈ 2.79 µM) | 1 (≈ 2.79 µM)
isolate (source animal id): 321 | – | 2 (≈ 5.58 µM)
isolate (source animal id): 323 | – | > 8
isolate (source animal id): 324 | – | 2 (≈ 5.58 µM)
isolate (source animal id): 326 | – | 2 (≈ 5.58 µM)
isolate (source animal id): 328 | – | 2 (≈ 5.58 µM)
isolate (source animal id): 329 | – | 2 (≈ 5.58 µM)
isolate (source animal id): 331 | 2 (≈ 5.58 µM) | –
isolate (source animal id): 333 | 2 (≈ 5.58 µM) | 2 (≈ 5.58 µM)
isolate (source animal id): 335 | – | 2 (≈ 5.58 µM)
isolate (source animal id): 338 | – | 2 (≈ 5.58 µM)
isolate (source animal id): 341 | > 8 | –
